Measured values: patent US10265407B2, “Modular nanodevices for smart adaptable vaccines” (Yale University, priority 2007, dated 2019)

System: dendritic cells
Conditions: FCCP incorporated in PLGA-G4 or PLGA-G4-cyclodextrin nanoparticles; FIG. 8
Protocol: The prepared nanoparticles were tested for their ability to disrupt endosomes. Particles co-encapsulating the OVA peptide or GFP associated with the dendrimer were incubated at a concentration of 50 μg/ml with 1E5 BMDCs for 24 hours. Liposomal disruption was assessed both qualitatively via fluorescence microscopy of GFP in the cytosol or quantitatively by amount of OVA antigen presented via MHC Class I. Antigen presentation on Class I MHC takes place via cytosolic transport and OVA peptide/MHC Class I was detected specifically using the antibody 24D16-PE.

## N#CC(C#N)=NNc1ccc(OC(F)(F)F)cc1 [FCCP, carbonyl cyanide 4-(trifluoromethoxy) phenylhydrazone]
  ability to disrupt endosomes: significantly enhances
